Source: ChEMBL document CHEMBL1201862, “PubChem BioAssay data set” (2004)
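48-hour exposure; five concentrations; linearly interpolated endpoints. GI50 marks 50% less growth.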 The source made the active and inactive calls. No stated cut-off is given here; in the data, active = GI50 up to about 1.1 µM and inactive = higher.

Experiments:
Test in all cases: NCI-60 cell line screen, 48 h
OVCAR-8 = test system: OVCAR-8
SNB-19 = test system: SNB-19
786-0 = test system: 786-0
MCF7 = test system: MCF7
COLO 205 = test system: COLO 205
MDA-MB-435 = test system: MDA-MB-435
SF-295 = test system: SF-295
HCT-15 = test system: HCT-15
CCRF-CEM = test system: CCRF-CEM
TK-10 = test system: TK-10
EKVX = test system: EKVX
SK-MEL-28 = test system: SK-MEL-28
A549 = test system: A549
SNB-75 = test system: SNB-75
HL-60 = test system: HL-60
BT-549 = test system: BT-549
NCI-H460 = test system: NCI-H460
HCC 2998 = test system: HCC 2998
OVCAR-3 = test system: OVCAR-3
A498 = test system: A498

Measured: GI50

COc1ccc(C2C(C=O)C(N3CCN(C)CC3)=Nc3nc4ccccc4n32)cc1 (stereo unspecified)
17.8 µM: HCT-15
inactive: OVCAR-8 16.2 µM | SNB-19 15.3 µM | 786-0 20 µM | MCF7 13.2 µM | COLO 205 16.8 µM | MDA-MB-435 15.5 µM | SF-295 19.9 µM | CCRF-CEM 2.31 µM | TK-10 14.3 µM | EKVX 27.7 µM | SK-MEL-28 17 µM | A549 17.2 µM | SNB-75 11.8 µM | HL-60 2.09 µM | BT-549 14 µM | NCI-H460 25.2 µM | HCC 2998 17.7 µM | OVCAR-3 14.3 µM | A498 11 µM

COc1ccc(OC)c(CCc2cc(OC)ccc2OC)c1
inactive: OVCAR-8 2.86 µM | SNB-19 4.8 µM | 786-0 3.17 µM | COLO 205 1.29 µM | SF-295 2.11 µM | CCRF-CEM 2.9 µM | TK-10 3.42 µM | EKVX 7.53 µM | SK-MEL-28 3.28 µM | A549 5.28 µM | SNB-75 2.41 µM | HL-60 1.5 µM | BT-549 > 5.4 µM | NCI-H460 1.71 µM | HCC 2998 3.79 µM | A498 4.48 µM
active: MCF7 0.358 µM | MDA-MB-435 0.174 µM | OVCAR-3 0.431 µM
0.34 µM: HCT-15

C[C@@H]1CCC([C@@H](C)[C@H]2CC[C@H]3[C@@H]4CC[C@H]5C[C@@H](O)CC[C@]5(C)[C@H]4CC[C@]23C)=NC1
2.76 µM: HCT-15
inactive: OVCAR-8 8.11 µM | SNB-19 10.6 µM | 786-0 8.02 µM | MCF7 9.04 µM | COLO 205 8.15 µM | MDA-MB-435 20.7 µM | SF-295 4.71 µM | CCRF-CEM > 41.1 µM | TK-10 34.7 µM | EKVX 12.4 µM | SK-MEL-28 20.1 µM | A549 16.9 µM | SNB-75 19.1 µM | HL-60 1.36 µM | BT-549 25.6 µM | NCI-H460 7.62 µM | HCC 2998 6.52 µM | OVCAR-3 20.4 µM | A498 > 70.1 µM

COc1ccc2c(c1)CC[C@@H]1[C@@H]2CC[C@]2(C)/C(=N/OCCN3CCCCC3)CC[C@@H]12
inactive: OVCAR-8 9.79 µM | SNB-19 7.45 µM | 786-0 1.85 µM | MCF7 6.95 µM | COLO 205 1.55 µM | MDA-MB-435 4.56 µM | SF-295 3.52 µM | CCRF-CEM 3.28 µM | TK-10 4.74 µM | EKVX 8.32 µM | SK-MEL-28 2.12 µM | A549 5.35 µM | SNB-75 5.69 µM | HL-60 2.79 µM | BT-549 12.8 µM | NCI-H460 2.5 µM | HCC 2998 2.89 µM | OVCAR-3 3.69 µM | A498 6.38 µM
2.03 µM: HCT-15

CC(C)[Si]1(C(C)C)OCC2OC(N3C(=O)NC(=O)C[C@@H]3C(O)c3ccccc3)CC2O[Si](C(C)C)(C(C)C)O1 (stereo partly specified)
5.42 µM: HCT-15
inactive: OVCAR-8 6.19 µM | SNB-19 9.93 µM | 786-0 5.93 µM | MCF7 3.92 µM | COLO 205 9.86 µM | MDA-MB-435 5.5 µM | SF-295 4.51 µM | CCRF-CEM 2.54 µM | TK-10 9.89 µM | EKVX 8.2 µM | SK-MEL-28 4.51 µM | A549 11.2 µM | SNB-75 4.54 µM | HL-60 2.65 µM | BT-549 18.1 µM | NCI-H460 3.03 µM | HCC 2998 2.05 µM | OVCAR-3 4.83 µM | A498 7.21 µM

COC(=O)N/N=C(/c1nc2ccc([N+](=O)[O-])cc2nc1O)C(O)c1ccc(OC)c(OC)c1 (stereo unspecified)
inactive: OVCAR-8 > 100 µM | SNB-19 > 100 µM | 786-0 > 69 µM | MCF7 88.1 µM | COLO 205 39.4 µM | MDA-MB-435 > 100 µM | SF-295 98.6 µM | CCRF-CEM 37.8 µM | TK-10 > 100 µM | EKVX > 100 µM | SK-MEL-28 > 100 µM | A549 > 100 µM | SNB-75 > 100 µM | HL-60 > 68.5 µM | BT-549 > 100 µM | NCI-H460 59 µM | HCC 2998 > 100 µM | OVCAR-3 > 54.7 µM | A498 > 67.8 µM
46.8 µM: HCT-15

CC1CC(C)[C@H](O)C([C@H](O)CC2CC(=O)N(C)C(=O)C2)C1 (stereo partly specified)
> 100 µM: HCT-15
inactive: OVCAR-8 > 100 µM | SNB-19 > 100 µM | 786-0 > 100 µM | MCF7 > 100 µM | COLO 205 > 100 µM | MDA-MB-435 > 100 µM | SF-295 82.4 µM | CCRF-CEM > 100 µM | TK-10 > 100 µM | EKVX > 100 µM | SK-MEL-28 > 100 µM | A549 > 100 µM | SNB-75 95.1 µM | HL-60 > 100 µM | BT-549 > 100 µM | NCI-H460 > 100 µM | HCC 2998 > 100 µM | OVCAR-3 > 100 µM | A498 > 100 µM

CC(=O)OCC1OC(N2C(C)=C(C(C)=O)C(c3ccc(Cl)cc3)C(C#N)=C2S)C(OC(C)=O)C(OC(C)=O)C1OC(C)=O (stereo unspecified)
inactive: OVCAR-8 52.5 µM | SNB-19 > 100 µM | 786-0 35.6 µM | MCF7 47 µM | COLO 205 19.4 µM | MDA-MB-435 36.8 µM | SF-295 66.2 µM | CCRF-CEM 44.1 µM | TK-10 76.9 µM | SK-MEL-28 47.1 µM | A549 49.9 µM | SNB-75 27.9 µM | HL-60 37.3 µM | BT-549 62.4 µM | NCI-H460 45.1 µM | HCC 2998 47.1 µM | OVCAR-3 61.4 µM | A498 38.2 µM
41.3 µM: HCT-15

Cn1cnc2c1c(=O)n(CCNCCO)c(=O)n2C
> 100 µM: HCT-15
inactive: OVCAR-8 > 100 µM | SNB-19 > 100 µM | 786-0 > 100 µM | MCF7 > 100 µM | COLO 205 > 100 µM | MDA-MB-435 > 100 µM | SF-295 > 100 µM | CCRF-CEM > 100 µM | TK-10 > 100 µM | EKVX > 100 µM | SK-MEL-28 > 100 µM | A549 > 100 µM | SNB-75 > 100 µM | HL-60 > 100 µM | BT-549 > 100 µM | NCI-H460 > 100 µM | HCC 2998 > 100 µM | OVCAR-3 > 100 µM | A498 > 100 µM

CC(Oc1ccccc1)C(=O)NNC(=O)OC(C)(C)C (stereo unspecified)
> 100 µM: HCT-15
inactive: OVCAR-8 > 100 µM | SNB-19 > 100 µM | 786-0 > 100 µM | MCF7 > 100 µM | COLO 205 > 100 µM | MDA-MB-435 > 100 µM | SF-295 > 100 µM | CCRF-CEM > 100 µM | TK-10 > 100 µM | EKVX > 100 µM | SK-MEL-28 > 100 µM | A549 > 100 µM | SNB-75 > 100 µM | HL-60 > 100 µM | BT-549 > 100 µM | NCI-H460 > 100 µM | HCC 2998 > 100 µM | OVCAR-3 > 100 µM | A498 > 100 µM

COc1ccc(/C=C2\CCCC(CN(C)C)C2=O)cc1 (stereo unspecified)
inactive: OVCAR-8 3.64 µM | SNB-19 7.36 µM | 786-0 1.79 µM | COLO 205 2.1 µM | MDA-MB-435 2.61 µM | SF-295 19.1 µM | TK-10 3.36 µM | EKVX 10.2 µM | SK-MEL-28 2.01 µM | A549 17.7 µM | SNB-75 7.45 µM | BT-549 1.92 µM | NCI-H460 21.1 µM | HCC 2998 6.71 µM | OVCAR-3 1.94 µM | A498 16.8 µM
active: MCF7 0.638 µM | CCRF-CEM 0.971 µM | HL-60 0.618 µM
1.24 µM: HCT-15

Cc1nc(-c2cc3c(ccc4ccccc43)oc2=O)cc2c1c(=O)oc1ccc3ccccc3c12
inactive: OVCAR-8 > 100 µM | SNB-19 > 100 µM | 786-0 > 100 µM | MCF7 > 100 µM | COLO 205 > 100 µM | MDA-MB-435 > 100 µM | SF-295 > 100 µM | CCRF-CEM > 100 µM | TK-10 > 100 µM | EKVX > 100 µM | SK-MEL-28 > 100 µM | A549 > 100 µM | HL-60 > 100 µM | BT-549 > 100 µM | NCI-H460 > 100 µM | HCC 2998 > 100 µM | OVCAR-3 > 100 µM | A498 > 100 µM
> 100 µM: HCT-15

O=C1c2ccc3cc(CCl)cc(O)c3c2C(=O)c2cccc(O)c21
active: MCF7 0.729 µM | MDA-MB-435 0.179 µM | CCRF-CEM 1.07 µM | HL-60 0.284 µM | OVCAR-3 0.152 µM
inactive: OVCAR-8 2.01 µM | SNB-19 4.58 µM | 786-0 2.07 µM | COLO 205 1.95 µM | SF-295 > 10 µM | TK-10 > 10 µM | EKVX > 10 µM | SK-MEL-28 1.77 µM | A549 4.61 µM | BT-549 > 10 µM | NCI-H460 3.3 µM | HCC 2998 3.17 µM | A498 > 10 µM
1.1 µM: HCT-15

c1ccc2c3c([nH]c2c1)C1c2[nH]c4ccccc4c2CCN1CC3
inactive: OVCAR-8 8.18 µM | 786-0 12.6 µM | MCF7 10.1 µM | COLO 205 3.79 µM | MDA-MB-435 15.2 µM | SF-295 16 µM | CCRF-CEM 13.5 µM | TK-10 11.2 µM | EKVX 6.12 µM | SK-MEL-28 15.2 µM | A549 14.7 µM | SNB-75 16.7 µM | HL-60 16.8 µM | BT-549 16.1 µM | NCI-H460 6.85 µM | HCC 2998 7.64 µM | OVCAR-3 12.4 µM | A498 19 µM
11 µM: HCT-15
